{"source": "patent US20160074297A1", "about": "“COMBINATION OF PETROSELINIC ACID AND TAURINE FOR ORAL ADMINISTRATION FOR HAIR AGING CONTROL” (NUTRICOS TECHNOLOGIES, priority 2013, published 2016)", "tested_on": "human mononuclear cells", "assay": "Production of lipoxin A4 in human mononuclear cells in vitro stimulated with PMA/A23187 plus DHA/EPA, quantified by LC-MS", "assay_type": "cell-based", "conditions": "coriander oil 0.25 mg/ml, taurine 3.1 mg/ml; 30 minutes pre-incubation, then 2 hours of stimulation with phorbol myristate 0.05 μM, calcium ionophore 1 μM, DHA and EPA 1 μg/mL; cell supernatant", "experimental": "Mononuclear blood cells are cultured under 5% CO2 and at 37° C. in a serum-free medium for macrophages (SFM Macrophage; Invitrogen 12065074) for 24 hours. […] The inflammatory response was then triggered in the presence of phorbol myristate (0.05 μM) and calcium ionophore (1μM) and a lipid substrate mixture composed of docosahexaenoic acid (DHA−1 μg/mL) and eicosapentaenoic acid (EPA-1μg/mL). The supernatants were then collected after 2 hours of stimulation and frozen at −80° C. before preparation for analysis by mass spectrometry. Experimental triplicates (three wells) were prepared per experimental condition. Into each culture plate was placed a control corresponding to cells stimulated with the PMA/A23187 mixture and/or with addition of the equimolar mixture of fatty acids. The frozen supernatants were concentrated by solid-phase extraction (SPE) and taken up in methanol before spectrometric analysis. The analytical method used consists in separating the various analytes by high-pressure liquid chromatography as a function of their retention time and in quantifying them by mass spectrometry. The analyses were performed using an LC 1290 Infinity chain (Agilent Technologies) coupled to a 6460 Triple Quad LC/MS mass spectrometer (Agilent Technologies) equipped with an electrospray ionization source (Jet stream technology) operating in negative mode. […]"}
{"smiles": "NCCS(=O)(=O)O", "note": "[Taurine]", "values": [{"measurement": "Level of lipoxin A4 production (% modulation relative to the control)", "value": "+38%"}]}
